As a reminder, the IC50 is the concentration that inhibits the measured activity by half. Read a low IC50 as inhibition by little substance.

For one assay, the target named is T1, purified HLA DRB1*1101 (Homo sapiens, UniProt P01903+P01911, A100R/A169T/A87E/I96F/K41T/L162R/M171V/P40S/Q125H/Q178H/Q39Y/Q99D/R42S/S66Y/T262R/V115G/W38E).
T1 construct: purified from EBV transformed homozygous cell lines or single MHC allele transfected 721.221, C1R, or fibroblast lines; made in house
The assay can be described thus: HLA-DR radioligand binding inhibition assay, DRB1*1101. Particulars: IC50 nM purified HLA DRB1 *1101, purified HLA DRB1*1101. In short, it runs like this:
(§1)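 First, HLA-DR was purified from lysates on LB3.1 columns. Then 1 μM to 1 nM protein was incubated 2 days with 1-10 nM radiolabeled peptide at pH 4 to 7. Finally, complexes were captured for 3 hours and bound cpm determined.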

The next assay addresses T2, purified HLA DRB1*0802 (Homo sapiens, UniProt P01903+P01911, A100R/A103L/A169T/F76Y/H45Y/I96F/K41T/L162R/M171V/P40S/Q125H/Q178H/Q39Y/Q99D/R218S/R42G/S66Y/V115G/W38E).
T2 construct: purified from EBV transformed homozygous cell lines or single MHC allele transfected 721.221, C1R, or fibroblast lines; made in house
The experiment in a line: HLA-DR radioligand binding inhibition assay, DRB1*0802. The settings on record: IC50 nM purified HLA DRB1 *0802, purified HLA DRB1*0802. As to the method:
(§2) Instead, wells of an opaque white 96-well Optiplate (Packard) are coated with 3 μg (100 μl@ 30 μg/ml) of HLA-specific antibody (Ab) that “capture” complexes of radiolabeled MHC and unlabeled peptide transferred from the molecular binding assay plate in 100 μl of 0.05% NP40/PBS. After a 3-hour incubation period, the supernatant is decanted and scintillation fluid (Microscint 20) added. Captured complexes are then measured on a microplate scintillation and luminescence counter (TopCount NXTTM; Packard).
(§3) HLA-DR purification. Fifteen distinct HLA-DR molecules were used in quantitative assays to measure the binding of peptides to solubilized HLA-DR molecules. […] Briefly, columns of inactivated Sepharose CL4B and Protein A Sepharose were used as pre-columns. HLA-DR molecules were captured by passage of lysates over LB3.1 monoclonal antibody (anti-HLA-DRA) columns. Antibody columns were washed with 10 mM Tris-HCL, pH8.0 with 1% (v/v) NP-40, followed by PBS containing 0.4% (w/v) n-octylglucoside. […] The pH was reduced to 8.0 and the eluates were concentrated by centrifugation in Centriprep 30 concentrators at 2000 rpm (Amicon, Beverly, Mass.).
(§4) Briefly, 1-10 nM of radiolabeled peptide was co-incubated for 2 days at either room temperature or 37° C. with 1 μM to 1 nM purified HLA-DR molecules in the presence of a cocktail of protease inhibitors. Assays were performed at various pH conditions, ranging from pH 4 to pH 7. […] After incubation, the percentage of HLA-DR-bound radioactivity is determined by capturing HLA-DR/peptide complexes on Optiplates (Packard Instruments, Meriden, Conn.) coated with the LB3.1 antibody and determining bound counts per minute using the TopCount microscintillation counter (Packard Instruments). […] Competitor peptides are tested in 2-4 complete, independent experiments, at concentrations ranging from […].

The next assay deals with T3, purified HLA DRB1*0404 (Homo sapiens, UniProt P01903+P01911, A100R/A169T/F76Y/I96L/K127E/L162R/M171V/N62H/P40V/Q125Y/R42H/S133A/S149N/S66Y/V209L/W38E).
T3 construct: purified from EBV transformed homozygous cell lines or single MHC allele transfected 721.221, C1R, or fibroblast lines; made in house
The experiment in a line: HLA-DR radioligand binding inhibition assay, DRB1*0404. Particulars: IC50 nM purified HLA DRB1 *0404, purified HLA DRB1*0404. In short, it runs like this:
as §1

Another assay deals with T4, purified HLA DRB1*0301 (Homo sapiens, UniProt P01903+P01911, A100K/A102G/A103R/A169T/F55Y/I96L/K41T/L162R/M171V/P40S/Q125H/Q178H/Q39Y/R42S/S66N/T106N/T262R/W38E/Y61H).
T4 construct: purified from EBV transformed homozygous cell lines or single MHC allele transfected 721.221, C1R, or fibroblast lines; made in house
The experiment in a line: HLA-DR radioligand binding inhibition assay, DRB1*0301. Particulars: IC50 nM purified HLA DRB1 *0301, purified HLA DRB1*0301. The protocol:
as §2
HLA-DR purification. Fifteen distinct HLA-DR molecules were used in quantitative assays to measure the binding of peptides to solubilized HLA-DR molecules. […] Briefly, columns of inactivated Sepharose CL4B and Protein A Sepharose were used as pre-columns. HLA-DR molecules were captured by passage of lysates over LB3.1 monoclonal antibody (anti-HLA-DRA) columns. Antibody columns were washed with 10 mM Tris-HCL, pH8.0 with 1% (v/v) NP-40, followed by PBS containing 0.4% (w/v) n-octylglucoside.
Briefly, 1-10 nM of radiolabeled peptide was co-incubated for 2 days at either room temperature or 37° C. with 1 μM to 1 nM purified HLA-DR molecules in the presence of a cocktail of protease inhibitors. Assays were performed at various pH conditions, ranging from pH 4 to pH 7. […] After incubation, the percentage of HLA-DR-bound radioactivity is determined by capturing HLA-DR/peptide complexes on Optiplates (Packard Instruments, Meriden, Conn.) coated with the LB3.1 antibody and determining bound counts per minute using the TopCount microscintillation counter (Packard Instruments).

For another assay, the target named is T5, purified HLA DRB1*1201 (Homo sapiens, UniProt P01903+P01911, A100R/A169T/D57E/D86V/F55L/H45Y/K41T/L162R/M171V/P40S/Q125H/Q178H/Q39Y/Q99D/R42G/S66L/T262R/V114A/V67L/W38E/Y59H/Y61H/Y89S).
T5 construct: purified from EBV transformed homozygous cell lines or single MHC allele transfected 721.221, C1R, or fibroblast lines; made in house
The assay can be described thus: HLA-DR radioligand binding inhibition assay, DRB1*1201. As to the method:
as §2, §3, §4

The target of the next assay is T6, purified HLA DRB3*0101 (Homo sapiens, UniProt P01903+P79483).
T6 construct: purified from EBV transformed homozygous cell lines or single MHC allele transfected 721.221, C1R, or fibroblast lines; made in house
The assay can be described thus: HLA-DR radioligand binding inhibition assay, DRB3*0101. The settings on record: IC50 nM purified HLA DRB3 *0101, purified HLA DRB3*0101. The protocol:
as §2, §3, §4

For assay [1], the system named is peptide-specific T cells in PBMC. The experiment in a line: 10-day interferon-gamma ELIspot with PBMC of breast or ovarian cancer patients and healthy controls. It is filed as cell-based, human. The settings on record: fraction of breast or ovarian cancer patients with mean T cell values above cutoff (mean + 2 SD of healthy donors). The text has this:
Each panel represents a unique peptide and each data point is derived from one individual. The grey box (i.e. cutoff) delineates the region that constitutes the mean and two standard deviations calculated from the normal healthy individuals. The percentages represent the fraction of patients that had mean T cell values above the cutoff. The peptides that are circled are those in which a higher fraction of the patients responded compared to the normal healthy controls. These peptides are considered to be the best vaccine candidates. However, it is clear that the rigidness of this approach could potentially result in many false negatives. […] Despite this, we identified 5 candidates to move forward. The fidelity of this approach is evident from a prior study which has already shown that a HER-2/neu peptide, p884-899, which encompasses the binding motif of p885, is an HLA-DR4 epitope.
Enzyme-linked immunosorbent spot assay. A 10-day ELlspot for detecting low-frequency T cells was used to determine reactivity to the tumor antigen peptides (Table 1) as described (Knutson K L et al. J Clin Onc 2006;24: 4254-61). […] PMA/Ionomycin and the CEF pool were used as positive non-tumor related controls as previously described (Knutson, 2006).
Using predictive algorithms discussed above, candidate HLA-DR1-binding epitopes were identified. […] An interferon-gamma ELIspot assay was used to assess immunity to the indiscriminate binding peptides in 48 patients with either breast or ovarian cancer and 18 healthy controls.
Using an ELlspot assay with a limit of detection of approximately […], patient-derived PBMC were screened for reactivity against all of the HLA-DR binding peptides.

In assay [2] the test system is 15 different HLA-DR molecules. The experiment in a line: HLA-DR binding assays, panel of 15 different HLA-DR molecules (breadth of binding). Particulars: number of the 15 HLA-DR molecules bound (binders: 1000 nM or better).
The next assay addresses T7, purified HLA DRB1*0401 (Homo sapiens, UniProt P01903+P01911, A100K/A169T/F76Y/I96L/K127E/L162R/M171V/N62H/P40V/Q125Y/R42H/S133A/S149N/S66Y/V115G/V209L/W38E).
T7 construct: purified from EBV transformed homozygous cell lines or single MHC allele transfected 721.221, C1R, or fibroblast lines; made in house
The experiment in a line: HLA-DR radioligand binding inhibition assay, DRB1*0401. Particulars: IC50 nM purified HLA DRB1 *0401, purified HLA DRB1*0401. The procedure, abridged: as §1

T1 sequence (P01903 26-254, other chains not shown): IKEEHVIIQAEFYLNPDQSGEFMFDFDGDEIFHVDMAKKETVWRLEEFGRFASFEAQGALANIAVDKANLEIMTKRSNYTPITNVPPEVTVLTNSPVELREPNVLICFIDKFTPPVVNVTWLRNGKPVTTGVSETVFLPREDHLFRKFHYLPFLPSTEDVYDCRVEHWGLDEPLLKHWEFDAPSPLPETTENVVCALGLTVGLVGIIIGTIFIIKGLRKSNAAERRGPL

As for `CC[C@H](C)[C@H](NC(=O)[C@H](CO)NC(=O)[C@@H]1CCCN1C(=O)[C@H](CCCCN)NC(=O)[C@@H]1CCCN1C(=O)[C@H](CC(C)C)NC(=O)[C@H](CCC(=O)O)NC(=O)[C@H](C)NC(=O)[C@H](CO)NC(=O)[C@@H](NC(=O)[C@@H](NC(=O)[C@@H](NC(=O)[C@@H](N)[C@@H](C)O)[C@@H](C)CC)[C@@H](C)O)C(C)C)C(=O)N[C@@H](CO)C(=O)N[C@@H](CO)C(=O)O` [Peptide 9019.0132], the IC50 was more than 20000 nM on purified HLA DRB1*1101; more than 20000 nM on purified HLA DRB1*0802; 7000 nM at purified HLA DRB1*0404; 74 nM at purified HLA DRB1*0301; more than 20000 nM on purified HLA DRB1*1201; more than 20000 nM at purified HLA DRB3*0101.

As for `CC[C@H](C)[C@H](NC(=O)[C@@H](NC(=O)[C@H](CC(C)C)NC(=O)[C@H](CCCCN)NC(=O)[C@H](C)NC(=O)[C@@H](NC(=O)[C@@H](NC(=O)[C@@H]1CCCN1C(=O)[C@@H]1CCCN1C(=O)[C@H](CC(N)=O)NC(=O)[C@H](Cc1c[nH]c2ccccc12)NC(=O)[C@H](Cc1ccccc1)NC(=O)[C@@H](NC(=O)[C@H](CC(C)C)NC(=O)[C@@H](N)CC(C)C)[C@@H](C)O)[C@@H](C)O)[C@@H](C)O)[C@@H](C)O)C(=O)O` [Peptide 9019.0105], the “Percent of patients with responses” value in assay [1] came to 17%. The “Total XRN” value in assay [2] worked out at 10.

`CSCC[C@H](NC(=O)[C@H](C)NC(=O)[C@@H](N)CCCNC(=N)N)C(=O)N[C@@H](CC(C)C)C(=O)N[C@@H](CCCCN)C(=O)N[C@@H](C)C(=O)N[C@@H](CCC(=O)O)C(=O)N[C@@H](CCC(=O)O)C(=O)N[C@H](C(=O)N[C@@H](CS)C(=O)N[C@@H](C)C(=O)N1CCC[C@H]1C(=O)N[C@@H](CO)C(=O)N[C@H](C(=O)N[C@@H](CO)C(=O)O)C(C)C)[C@@H](C)O` [Peptide 9019.0148]: the IC50 at purified HLA DRB1*0401 was 360 nM; on purified HLA DRB1*0802, more than 20000 nM; at purified HLA DRB1*0301, more than 20000 nM; at purified HLA DRB1*1201, more than 20000 nM; on purified HLA DRB3*0101 it was more than 20000 nM.

These data come from US20140377340A1, “HLA-DR BINDING PEPTIDES AND THEIR USES” (priority 2007, published 2014).
